{
  "source": "patent US12594263B2",
  "about": "“CBL inhibitors and compositions for expansion of immune cells” (Nurix Therapeutics, Inc., priority 2019, dated 2026)",
  "key": {"[1]": {"system": "human tumor-infiltrating lymphocytes (TIL)", "assay": "Expansion of TIL ex vivo from human tumor fragments (pre-REP, 24-well plate)", "type": "cell-based", "conditions": "for Percentage of total cell number relative to IL-2 alone on day 17: alone or with IL-2 6000 IU/mL", "description": "Samples of human ovarian and colon tumors were obtained from the Cooperative Human Tissue Network (CHTN, c/o Vanderbilt University Medical Center, Nashville, Tenn.). Solid tumor specimens were carefully dissected free of surrounding fatty and necrotic areas. The tumors were sliced into 8 mm^3 (2×2×2 mm^3) fragments under sterile conditions using a scalpel and a scalpel holder.\n(§1) The plates were placed in a humidified 37° C. incubator with 5% CO2. Half of the medium was replaced every two days after culture initiation. […] Subsequently, half the media was replaced thrice weekly, cultures were split to maintain a cell density of 1×10^6 cells/mL. […] Mitochondrial markers including, Mitotracker, Mitoprobe, and 2-NBDG may also be used to assess differentiation and/or activation of cells."}, "[2]": {"system": "human tumor-infiltrating lymphocytes (TIL)", "assay": "Flow cytometry immunophenotyping of expanded TIL (lineage and memory markers)", "type": "cell-based", "conditions": "for CD4 TCM CD62L+ CCR7+, percentage of total TIL cell number on day 28: TIL1 population, alone or with IL-2", "description": "as §1\n(§2) T lymphocytes were defined based on lineage and differentiation marker expression according to the developmental model (Restifo, Blood, 124:476-477, 2014), as shown in Table 4."}, "[3]": {"system": "human T cells from donor PBMC", "assay": "Flow cytometry immunophenotyping of T cells expanded from donor PBMC", "type": "cell-based", "from_the_text": "(§3) At day eleven, cells were pooled and counted, and immunophenotyped at day 11 by flow cytometry by measuring expression of lineage (CD4, CD8) and differentiation (including CD45RA, CD45RO, CD95, CCR7, CD62L, TCF1, PD-1, TIM3, LAG3) markers.\nas §2"}, "[4]": {"assay": "Compound stability in complete RPMI with 10% human serum (mass spectrometry)", "type": "physicochemical", "description": "To assess compound stability, at day 1, 1 μM compound 103 or DMSO was added to complete RMPI containing 10% human serum and stored at either 4° C., 22° C. or 37° C. over an 11 day time period. Concentration of compound 103 was assessed at each indicated timepoint and storage temperature by mass spectrometry. Compound 103 was stable for at least 11 days in RPMI medium (FIG. 33)."}, "OT-1 cells": {"system": "OT-1 cells", "assay": "Re-stimulation of harvested splenocytes with OVA Class I peptide", "type": "cell-based, mouse", "description": "The expanded OT-1 cells were characterized by FACS analysis and transferred into E.G7-OVA mice, which bear ovalbumin (OVA) expressing tumors. Following in vivo transfer of expanded OT-1 cells, antitumor response was monitored over time and the quality and quantity of immune response was assessed at various time points. Analysis included FACS analysis on blood, tumor, and spleen samples. Analysis also included re-stimulation of splenocytes with OVA Class I peptide to evaluate the multifunctionality of the antigen-specific effector T cells.\nExpanded OT-1 cells were assessed from splenocytes 11 days after transfer. Harvested splenocytes were re-stimulated with OVA Class I peptide for 72 hours.\nExpanded OT-1 cells were assessed from splenocytes 11 days after transfer. Harvested splenocytes were re-stimulated with OVA Class I peptide for 4 hours.\nExpanded OT-1 cells were assessed from splenocytes 11 days after transfer. Harvested splenocytes were re-stimulated with OVA Class I peptide for 24 hours."}, "[5]": {"system": "human T cells from peripheral blood mononuclear cells", "assay": "Expansion of CMV pp65 reactive T cells from peripheral blood mononuclear cells", "type": "cell-based", "conditions": "for Percentage of total cell number relative to IL-2 alone on day 11: alone or with IL-2 2 ng/mL", "from_the_text": "as §3"}},
  "data": [
    {"smiles": "C[C@@H]1CN(Cc2cc3c(c(C(F)(F)F)c2)CN(c2cccc(C4(Cc5nncn5C)COC4)c2)C3=O)CCC1(F)F", "note": "[Compound 103]", "values": [
      {"measurement": "Expansion of TIL in the absence of IL-2", "setting": "[1]; 0.1-10 μM Cbl inhibitor, no IL-2", "result": "considerable expansion of TIL"},
      {"measurement": "Percentage of total cell number relative to IL-2 alone on day 17", "setting": "[1]; TIL1 (ovary), 0.1 μM Cbl-i", "result": 90, "unit": "%"},
      {"measurement": "Percentage of total cell number relative to IL-2 alone on day 17", "setting": "[1]; TIL1 (ovary), 1.0 μM Cbl-i", "result": 75, "unit": "%"},
      {"measurement": "Percentage of total cell number relative to IL-2 alone on day 17", "setting": "[1]; TIL1 (ovary), 10 μM Cbl-i", "result": 60, "unit": "%"},
      {"measurement": "Percentage of total cell number relative to IL-2 alone on day 17", "setting": "[1]; TIL2 (ovary), 0.1 μM Cbl-i", "result": 30, "unit": "%"},
      {"measurement": "Percentage of total cell number relative to IL-2 alone on day 17", "setting": "[1]; TIL2 (ovary), 1.0 μM Cbl-i", "result": 26, "unit": "%"},
      {"measurement": "Percentage of total cell number relative to IL-2 alone on day 17", "setting": "[1]; TIL2 (ovary), 10 μM Cbl-i", "result": 22, "unit": "%"},
      {"measurement": "Percentage of total cell number relative to IL-2 alone on day 17", "setting": "[1]; TIL3 (ovary), 0.1 μM Cbl-i", "result": 30, "unit": "%"},
      {"measurement": "Percentage of total cell number relative to IL-2 alone on day 17", "setting": "[1]; TIL3 (ovary), 1.0 μM Cbl-i", "result": 43, "unit": "%"},
      {"measurement": "Percentage of total cell number relative to IL-2 alone on day 17", "setting": "[1]; TIL3 (ovary), 10 μM Cbl-i", "result": 16, "unit": "%"},
      {"measurement": "Percentage of total cell number relative to IL-2 alone on day 17", "setting": "[1]; TIL4 (colon), 0.1 μM Cbl-i", "result": 45, "unit": "%"},
      {"measurement": "Percentage of total cell number relative to IL-2 alone on day 17", "setting": "[1]; TIL4 (colon), 1.0 μM Cbl-i", "result": 58, "unit": "%"},
      {"measurement": "Percentage of total cell number relative to IL-2 alone on day 17", "setting": "[1]; TIL4 (colon), 10 μM Cbl-i", "result": 54, "unit": "%"},
      {"measurement": "Percentage of total cell number relative to IL-2 alone on day 17", "setting": "[1]; TIL5 (ovary), 0.1 μM Cbl-i", "result": 50, "unit": "%"},
      {"measurement": "Percentage of total cell number relative to IL-2 alone on day 17", "setting": "[1]; TIL5 (ovary), 1.0 μM Cbl-i", "result": 70, "unit": "%"},
      {"measurement": "Percentage of total cell number relative to IL-2 alone on day 17", "setting": "[1]; TIL5 (ovary), 10 μM Cbl-i", "result": 90, "unit": "%"},
      {"measurement": "Percentage of total cell number relative to IL-2 alone on day 17", "setting": "[1]; TIL6 (ovary), 0.1 μM Cbl-i", "result": 93, "unit": "%"},
      {"measurement": "Percentage of total cell number relative to IL-2 alone on day 17", "setting": "[1]; TIL6 (ovary), 1.0 μM Cbl-i", "result": 87, "unit": "%"},
      {"measurement": "Percentage of total cell number relative to IL-2 alone on day 17", "setting": "[1]; TIL6 (ovary), 10 μM Cbl-i", "result": 80, "unit": "%"},
      {"measurement": "CD4 TCM CD62L+ CCR7+, percentage of total TIL cell number on day 28", "setting": "[2]; 0.1 μM Cbl-i", "result": 2.8, "unit": "%"},
      {"measurement": "CD4 TCM CD62L+ CCR7+, percentage of total TIL cell number on day 28", "setting": "[2]; 1.0 μM Cbl-i", "result": 8.0, "unit": "%"},
      {"measurement": "Phenotype of human TIL expanded ex vivo", "setting": "[2]; Table 5", "result": "TCM (CD45RO+, CD95+, CCR7+, CD62L+) or TEM (CD45RO+, CD95+, CCR7−, CD62L−) phenotype"},
      {"measurement": "Expansion of CD8+ versus CD4+ T lymphocytes in TIL culture", "setting": "[2]; tumor sample, FIG. 7", "result": "selectively expand CD8+ T lymphocytes"},
      {"measurement": "Percentage of CD8+ cells in culture", "setting": "[3]; 1 μM Cbl inhibitor alone, versus IL-2 alone", "result": "higher percentages of CD8+ cells than those cultured in IL-2 alone"},
      {"measurement": "Phenotype of human T cells expanded ex vivo", "setting": "[3]; donor PBMC, Table 7", "result": "TSCM (CD45RA+, CD95+, CCR7+, CD62L+), TCM (CD45RO+, CD95+, CCR7+, CD62L+) or TEM (CD45RO+, CD95+, CCR7−, CD62L−) phenotype"},
      {"measurement": "CD4 TsCM, percentage of total cell number on day 11", "setting": "[3]; donor PBMC, 0.1 μM Cbl-i, alone or with IL-2", "result": 12, "unit": "%"},
      {"measurement": "Selective expansion of CD8+ T lymphocytes", "setting": "[3]; donor PBMCs, FIGS. 2A and 2B", "result": "selectively expand CD8+ T lymphocytes from donor PBMCs"},
      {"measurement": "Stability in RPMI medium", "setting": "[4]; 1 μM, complete RPMI with 10% human serum, 4° C., 22° C. or 37° C. (FIG. 33)", "result": "at least 11 days"},
      {"measurement": "Stability at multiple temperatures (figure legend)", "setting": "[4]; 4° C.-37° C., FIG. 33", "result": "stable at multiple temperatures (4° C.-37° C.) over an 11 day period"},
      {"measurement": "Exhaustion markers (PD1 and TIM3) in multifunctional cells", "setting": "OT-1 cells; OVA Class I peptide 4 hours, versus IL-2 alone (FIG. 16C)", "result": "lower level of expression of exhaustion markers (PD1 and TIM3)"},
      {"measurement": "Multifunctionality (IFN-gamma and TNF-alpha double positive cells)", "setting": "OT-1 cells; OVA Class I peptide 4 hours, versus IL-2 alone (FIGS. 16A, 16B)", "result": "comparable multifunctionality"},
      {"measurement": "IL-2 production upon restimulation", "setting": "OT-1 cells; OVA Class I peptide 24 hours (FIG. 17B)", "result": "increased IL-2 production upon restimulation"},
      {"measurement": "Ability to proliferate in response to peptide restimulation", "setting": "OT-1 cells; splenocytes 11 days after transfer, OVA Class I peptide 72 hours (FIG. 15)", "result": "superior intrinsic ability to proliferate in response to peptide restimulation"},
      {"measurement": "Percentage of total cell number relative to IL-2 alone on day 11", "setting": "[5]; Donor 1, 0.1 μM Cbl-i", "result": 12, "unit": "%"},
      {"measurement": "Percentage of total cell number relative to IL-2 alone on day 11", "setting": "[5]; Donor 1, 1.0 μM Cbl-i", "result": 12, "unit": "%"},
      {"measurement": "Percentage of total cell number relative to IL-2 alone on day 11", "setting": "[5]; Donor 1, 10 μM Cbl-i", "result": 44, "unit": "%"},
      {"measurement": "Percentage of total cell number relative to IL-2 alone on day 11", "setting": "[5]; Donor 2, 0.1 μM Cbl-i", "result": 70, "unit": "%"},
      {"measurement": "Percentage of total cell number relative to IL-2 alone on day 11", "setting": "[5]; Donor 2, 1.0 μM Cbl-i", "result": 95, "unit": "%"},
      {"measurement": "Percentage of total cell number relative to IL-2 alone on day 11", "setting": "[5]; Donor 2, 10 μM Cbl-i", "result": 45, "unit": "%"},
      {"measurement": "Percentage of total cell number relative to IL-2 alone on day 11", "setting": "[5]; Donor 3, 1.0 μM Cbl-i", "result": 75, "unit": "%"},
      {"measurement": "Percentage of total cell number relative to IL-2 alone on day 11", "setting": "[5]; Donor 3, 10 μM Cbl-i", "result": 38, "unit": "%"},
      {"measurement": "Expansion of T cells in the absence of IL-2", "setting": "[5]; PBMC, no IL-2", "result": "considerable expansion of T cells"}
    ]}
  ]
}
